# Reference: US9695155B2, “Herbicidal substituted pyrimidinyloxy benzene compounds” (E. I. DU PONT DE NEMOURS AND COMPANY, priority 2013, dated 2017)
# Key:
# [1] = test system: velvetleaf; assay: Test A preemergence; format: in vivo, Abutilon theophrasti
# Method in brief: (§1)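 Pre- and postemergence greenhouse screen. Soil: loam + sand. Spray carrier: solvent mixture, non-phytotoxic, with surfactant. Post timing at 1–2 leaves, height 2–10 cm. Readout: visual injury on a 0–100 scale roughly 10 days after application, untreated plants as reference.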
# [2] = test system: Italian ryegrass; assay: Test C postemergence; format: in vivo, Lolium multiflorum
# Method in brief: (§2)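 Seeds are planted in blended loam soil and sand and treated preemergence, while seedlings in a peat moss/vermiculite medium receive postemergence sprays at 2 to 18 cm height. All plants stay in the greenhouse for 13 to 15 days before visual comparison with controls on a 0–100 scale.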
# [3] = test system: wheat, winter; assay: Test C postemergence; format: in vivo, Triticum aestivum
# Method in brief: as §2
# [4] = test system: wheat; assay: Test A postemergence; format: in vivo, Triticum aestivum; settings: Triticum aestivum, post-emergence, 240 h, 0 to 100 scale where 0 is no effect and 100 is complete control
# Method in brief: as §1
# [5] = test system: blackgrass; assay: Test C preemergence; format: in vivo, Alopecurus myosuroides; settings: Alopecurus myosuroides, pre-emergence
# Method in brief: as §2
# [6] = test system: pigweed; assay: Test C preemergence; format: in vivo, Amaranthus retroflexus; settings: Amaranthus retroflexus, pre-emergence
# Method in brief: as §2
# [7] = test system: oilseed rape; assay: Test C postemergence; format: in vivo, Brassica napus
# Method in brief: as §2
# [8] = test system: corn; assay: Test A preemergence; format: in vivo, Zea mays
# Method in brief: as §1
# [9] = test system: galium; assay: Test C postemergence; format: in vivo, Galium aparine; settings: Galium, post-emergence
# Method in brief: as §2
# [10] = test system: velvetleaf; assay: Test C preemergence; format: in vivo, Abutilon theophrasti; settings: Abutilon theophrasti, pre-emergence
# Method in brief: as §2
# [11] = test system: velvetleaf; assay: Test C postemergence; format: in vivo, Abutilon theophrasti
# Method in brief: as §2
# [12] = test system: sedge, umbrella; assay: Test B flooded paddy test; format: in vivo, Cyperus difformis; settings: Cyperus difformis, Flood, 250 g ai/ha; 0 to 100 scale where 0 is no effect and 100 is complete control; read-out: Plant response rating, Sedge, Umbrella
# Method in brief: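 Seedlings are raised to two leaves, flooded to a depth of 3 cm and dosed by adding the compound to the floodwater. Water level is kept constant, and plants are scored visually versus controls 13–15 days later (0 = no effect, 100 = complete control).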
# [13] = test system: lambsquarters; assay: Test C postemergence; format: in vivo, Chenopodium album
# Method in brief: as §2
# [14] = test system: barnyardgrass; assay: Test C postemergence; format: in vivo, Echinochloa crus-galli; settings: Echinochloa crus-galli, post-emergence
# Method in brief: as §2
# [15] = test system: corn; assay: Test C preemergence; format: in vivo, Zea mays; settings: Zea mays, pre-emergence
# Method in brief: as §2
# [16] = 31 g ai/ha, postemergence, visual rating, scale 0 to 100 (0 no effect, 100 complete control), 13 to 15 days
smiles,measurement,setting,value
"FC(F)c1cccc(Oc2ncc(Cl)cn2)c1-n1cc(Br)cn1 [Compound 194, 2-[2-(4-bromo-1H-pyrazol-1-yl)-3-(difluoromethyl)phenoxy]-5-chloropyrimidine]",Velvetleaf plant response rating (0 to 100 scale),[1]; 125 g ai/ha,80
same,pest or weed control at 500 g/ha,"[1]; Abutilon theophrasti, pre-emergence, 240 h, 500 g ai/ha, 0 to 100 scale where 0 is no effect and 100 is complete control, read-out: Velvetleaf plant response rating",100%
same,"Ryegrass, Italian plant response rating",[2]; [16],0
same,pest or weed control at 125 g/ha,"[2]; Lolium multiflorum, post-emergence, 125 g ai/ha, postemergence, visual rating, scale 0 to 100 (0 no effect, 100 complete control), read-out: Plant response rating, Ryegrass, Italian",0%
same,pest or weed control at 250 g/ha,"[2]; Lolium multiflorum, post-emergence, 250 g ai/ha, postemergence, read-out: Plant response rating (0 to 100), Ryegrass, Italian",15%
same,pest or weed control at 62 g/ha,"[2]; Lolium multiflorum, post-emergence, Postemergence, 62 g ai/ha, scale 0 to 100 (0 no effect, 100 complete control), 13 to 15 days, read-out: Plant response rating, Ryegrass, Italian",0%
same,Wheat plant response rating,[3]; [16],0
same,plant injury at 125 g/ha,"[3]; Triticum aestivum, post-emergence, 125 g ai/ha, postemergence, visual rating, scale 0 to 100 (0 no effect, 100 complete control), read-out: Plant response rating, Wheat",0%
same,plant injury at 250 g/ha,"[3]; Triticum aestivum, post-emergence, 250 g ai/ha, postemergence, read-out: Plant response rating (0 to 100), Wheat",5%
same,plant injury at 62 g/ha,"[3]; Triticum aestivum, post-emergence, Postemergence, 62 g ai/ha, scale 0 to 100 (0 no effect, 100 complete control), 13 to 15 days, read-out: Plant response rating, Wheat",0%
same,plant injury at 125 g/ha,"[4]; 125 g ai/ha, read-out: Wheat plant response rating",30%
same,plant injury at 500 g/ha,"[4]; 500 g ai/ha, read-out: Plant response rating, Wheat",60%
same,pest or weed control at 125 g/ha,"[5]; 125 g ai/ha, preemergence, scale 0 (no effect) to 100 (complete control), read-out: Blackgrass plant response rating",90%
same,pest or weed control at 250 g/ha,"[5]; 250 g ai/ha, preemergence, scale 0 (no effect) to 100 (complete control), read-out: Blackgrass plant response rating",90%
same,pest or weed control at 62 g/ha,"[5]; Preemergence, 62 g ai/ha, scale 0 to 100, 0 no effect, 100 complete control, read-out: Plant response rating, Blackgrass",50%
same,pest or weed control at 125 g/ha,"[6]; 125 g ai/ha, preemergence, scale 0 (no effect) to 100 (complete control), read-out: Pigweed plant response rating",100%
same,pest or weed control at 250 g/ha,"[6]; 250 g ai/ha, preemergence, scale 0 (no effect) to 100 (complete control), read-out: Pigweed plant response rating",100%
same,pest or weed control at 62 g/ha,"[6]; Preemergence, 62 g ai/ha, scale 0 to 100, 0 no effect, 100 complete control, read-out: Plant response rating, Pigweed",100%
same,Oilseed Rape plant response rating,[7]; [16],30
same,plant injury at 125 g/ha,"[7]; Brassica napus, post-emergence, 125 g ai/ha, postemergence, visual rating, scale 0 to 100 (0 no effect, 100 complete control), read-out: Plant response rating, Oilseed Rape",85%
same,plant injury at 250 g/ha,"[7]; Brassica napus, post-emergence, 250 g ai/ha, postemergence, read-out: Plant response rating (0 to 100), Oilseed Rape",90%
same,plant injury at 62 g/ha,"[7]; Brassica napus, post-emergence, Postemergence, 62 g ai/ha, scale 0 to 100 (0 no effect, 100 complete control), 13 to 15 days, read-out: Plant response rating, Oilseed Rape",40%
same,Corn plant response rating (0 to 100 scale),[8]; 125 g ai/ha,30
same,plant injury at 500 g/ha,"[8]; Zea mays, pre-emergence, 240 h, 500 g ai/ha, 0 to 100 scale where 0 is no effect and 100 is complete control, read-out: Corn plant response rating",50%
same,pest or weed control at 31 g/ha,"[9]; 31 g ai/ha, postemergence, visual rating, scale 0 to 100 (0 no effect, 100 complete control), 13 to 15 days, read-out: Galium plant response rating",60%
same,pest or weed control at 125 g/ha,"[9]; 125 g ai/ha, postemergence, visual rating, scale 0 to 100 (0 no effect, 100 complete control), read-out: Plant response rating, Galium",85%
same,pest or weed control at 250 g/ha,"[9]; 250 g ai/ha, postemergence, read-out: Plant response rating (0 to 100), Galium",90%
same,pest or weed control at 62 g/ha,"[9]; Postemergence, 62 g ai/ha, scale 0 to 100 (0 no effect, 100 complete control), 13 to 15 days, read-out: Plant response rating, Galium",65%
same,pest or weed control at 125 g/ha,"[10]; 125 g ai/ha, preemergence, scale 0 (no effect) to 100 (complete control), read-out: Velvetleaf plant response rating",100%
same,pest or weed control at 250 g/ha,"[10]; 250 g ai/ha, preemergence, scale 0 (no effect) to 100 (complete control), read-out: Velvetleaf plant response rating",100%
same,pest or weed control at 62 g/ha,"[10]; Preemergence, 62 g ai/ha, scale 0 to 100, 0 no effect, 100 complete control, read-out: Plant response rating, Velvetleaf",75%
same,Velvetleaf plant response rating,[11]; [16],40
same,pest or weed control at 125 g/ha,"[11]; Abutilon theophrasti, post-emergence, 125 g ai/ha, postemergence, visual rating, scale 0 to 100 (0 no effect, 100 complete control), read-out: Plant response rating, Velvetleaf",70%
same,pest or weed control at 250 g/ha,"[11]; Abutilon theophrasti, post-emergence, 250 g ai/ha, postemergence, read-out: Plant response rating (0 to 100), Velvetleaf",75%
same,pest or weed control at 62 g/ha,"[11]; Abutilon theophrasti, post-emergence, Postemergence, 62 g ai/ha, scale 0 to 100 (0 no effect, 100 complete control), 13 to 15 days, read-out: Plant response rating, Velvetleaf",45%
same,pest or weed control at 250 g/ha,[12],95%
same,Lambsquarters plant response rating,[13]; [16],60
same,pest or weed control at 125 g/ha,"[13]; Chenopodium album, post-emergence, 125 g ai/ha, postemergence, visual rating, scale 0 to 100 (0 no effect, 100 complete control), read-out: Plant response rating, Lambsquarters",90%
same,pest or weed control at 250 g/ha,"[13]; Chenopodium album, post-emergence, 250 g ai/ha, postemergence, read-out: Plant response rating (0 to 100), Lambsquarters",98%
same,pest or weed control at 62 g/ha,"[13]; Chenopodium album, post-emergence, Postemergence, 62 g ai/ha, scale 0 to 100 (0 no effect, 100 complete control), 13 to 15 days, read-out: Plant response rating, Lambsquarters",80%
same,pest or weed control at 31 g/ha,"[14]; 31 g ai/ha, postemergence, visual rating, scale 0 to 100 (0 no effect, 100 complete control), 13 to 15 days, read-out: Barnyardgrass plant response rating",5%
same,pest or weed control at 125 g/ha,"[14]; 125 g ai/ha, postemergence, visual rating, scale 0 to 100 (0 no effect, 100 complete control), read-out: Plant response rating, Barnyardgrass",15%
same,pest or weed control at 250 g/ha,"[14]; 250 g ai/ha, postemergence, read-out: Plant response rating (0 to 100), Barnyardgrass",55%
same,pest or weed control at 62 g/ha,"[14]; Postemergence, 62 g ai/ha, scale 0 to 100 (0 no effect, 100 complete control), read-out: Plant response rating, Barnyardgrass",5%
same,plant injury at 125 g/ha,"[15]; 125 g ai/ha, preemergence, scale 0 (no effect) to 100 (complete control), read-out: Corn plant response rating",15%
same,plant injury at 250 g/ha,"[15]; 250 g ai/ha, preemergence, scale 0 (no effect) to 100 (complete control), read-out: Corn plant response rating",25%
same,"Corn plant response rating (crop injury, 0 = no effect, 100 = complete kill) at 62 g/ha","[15]; Preemergence, 62 g ai/ha, scale 0 to 100, 0 no effect, 100 complete control",0%
